The record followed here is patent US20040255344A1, “Rodent with urinary disturbance and method of constructing the same, and method of screening remedy for urinary disturbance using the rodent” (priority 2001, published 2004).

The assay has as its system urinary dysfunction model rat. Kind of assay: screening test in urinary dysfunction model rat (superior colliculus lesion), cystometrography. It counts as in vivo. The settings on record: 0.3 mg/kg iv, 5 minutes after intravenous administration, FIG. 9. From the text: FIG. 3 indicates a schematic diagram of a system to measure the status of accelerated urinary reflex used in the present invention.
Here, a cystometrogram is made when detecting the urinary reflex by putting a catheter (not indicated in the diagram) in the bladder, and continuously measuring the changes of internal bladder pressure through the said catheter.
Further, the volume of the bladder can be calculated from the results of this cystometrogram as follows. Specifically, when infusing physiological saline into the bladder at a constant rate, the volume of the bladder can be calculated by multiplying the time required to reach the threshold where the urinary reflex starts by the fixed rate.
An urinary dysfunction model rat was produced by the following method. […]
After the operation was complete and the animals had awakened from the anesthesia, the post-operative rat was measured using cystometrography based on the system indicated in FIG. 3, and the status of accelerated urinary reflex was confirmed.
Using a control rat and the rat produced under adequate conditions based on the present invention, the presence of a therapeutic effect was assessed after intravenously administering oxybutynin hydrochloride (0.3 mg/kg iv:iv means intravenous injection, and iv means the same in FIG. 9.), which is a candidate compound as a therapeutic agent for urinary dysfunction. […]

Structures can show the parent of a compound that is named as a salt.

Consider `CCN(CC)CC#CCOC(=O)C(O)(c1ccccc1)C1CCCCC1` (centres unmarked) [oxybutynin hydrochloride], for which the bladder volume entry is given as “increased” and the “level of the urinary dysfunction” value was “improved”.
